{"source": "patent US9040673B2", "about": "“Synthesis and identification of novel RSK-specific inhibitors” (University of Virginia Patent Foundation, priority 2009, dated 2015)", "key": {"[1]": {"system": "NIH/3T3 parental cell line", "assay": "proliferation of parental NIH/3T3 cell line", "format": "cell-based", "source_text": "(§1) The importance of MAPK to proliferation and oncogenesis is well established. However, the role that RSK plays in these processes has not been examined. […] SL0101-1 produced striking morphology changes in the transformed cells but not in the parental cell line. The vehicle control treated Ha-Ras transformed cells were elongated whereas in response to SL0101-1 the cells became much larger and flatter, appearing more like the parental cells, or like Ha-Ras transformed cells treated with U0126.\n(§2) Cell Culture. For proliferation studies cells were seeded at 2500 to 5000 cells per well in 96 well tissue culture plates in the appropriate medium as described by American Type Culture Collection. After 24 hr, the medium was replaced with medium containing compound or vehicle as indicated. Cell viability was measured at indicated time points using CellTiter-Glo™ assay reagent (Promega) according to manufacturer's protocol. For in vivo inhibition studies, cells were seeded at 2.5×10^5 cells/well in 12 well cell culture clusters. After 24 hr, the cells were serum starved for 24 hr then incubated with compound or vehicle for 3 hr prior to a 30 min PDB stimulation. Cells were lysed as previously described (J. Biol. Chem. 273, 13317-13323 (1998)). The lysates were normalized for total protein, electrophoresed and immunoblotted. […]"}, "Y. pseudotuberculosis": {"system": "Y. pseudotuberculosis", "format": "cell-based, Yersinia pseudotuberculosis", "details": "60 μM, liquid LB medium"}, "MCF-10A cells": {"system": "MCF-10A cells", "assay": "MCF-10A cell proliferation", "format": "cell-based, human", "details": "50 μM (FIG. 8A)", "protocol": "The cell number was measured after 48 h of treatment. Values given are the fold proliferation as a percentage of that observed with vehicle-treated cells. Points, mean (n=2 in quadruplicate); bars=SD.\nFIGS. 8A-8D SL0101-1 inhibits the proliferation of cancer cells but not normal cells. […] Cell viability was measured at indicated time points. Proliferation assays were conducted using CellTiter-Glo Luminescent Cell Viability Assay (Promega), performed 44 hrs after treatment for FIGS. 8A &B and at indicated points for FIG. 8C. The data are expressed relative to time 0.\nCell Culture. For proliferation studies cells were seeded at 2500 to 5000 cells per well in 96 well tissue culture plates in the appropriate medium as described by American Type Culture Collection. After 24 hr, the medium was replaced with medium containing compound or vehicle as indicated. Cell viability was measured at indicated time points using CellTiter-Glo™ assay reagent (Promega) according to manufacturer's protocol. For in vivo inhibition studies, cells were seeded at 2.5×10^5 cells/well in 12 well cell culture clusters. After 24 hr, the cells were serum starved for 24 hr then incubated with compound or vehicle for 3 hr prior to a 30 min PDB stimulation. Cells were lysed as previously described (J. Biol. Chem. 273, 13317-13323 (1998)). The lysates were normalized for total protein, electrophoresed and immunoblotted. For cell imaging, Ha-Ras-transformed NIH/3T3 cells were seeded on LABTEK II chamber slides (Nalge) at a density of 1×10^4 cells/well. After 24 hr, fresh medium was added the indicated compounds or vehicle. Images were taken 48 hr after treatment at a magnification of 20×."}, "[2]": {"system": "Yersinia pseudotuberculosis", "format": "cell-based", "details": "60 μM, 4 hours prior to infection (MOI=25)"}, "[3]": {"system": "Ha-Ras transformed NIH/3T3 cells", "assay": "proliferation of Ha-Ras transformed NIH/3T3 cells", "format": "cell-based", "protocol": "FIGS. 7A & 7B. SL0101-1 inhibition of cell proliferation is reversible. FIG. 7A: Ha-Ras-transformed cells were treated with vehicle or 50 μM SL0101-1. After 48 hr the medium was replaced and cells previously incubated with vehicle were maintained in vehicle. Cells that had previously been incubated with SL0101-1 were treated with either SL0101-1 or vehicle (washout). Cell viability was measured 48 hr later. FIG. 7B: Determination of siRNA to inhibit cancer cell proliferation. Duplex siRNAs to a sequence in the bluescript plasmid (Control), RSK1, RSK2 or RSK1 and RSK2 were transfected into MCF-7 cells. Medium was replaced 24 hr post-transfection and the cells incubated for an additional 48 hr prior to measuring cell viability.\nas §1\nCell Culture. […] Cell viability was measured at indicated time points using CellTiter-Glo™ assay reagent (Promega) according to manufacturer's protocol. […]"}, "macrophages": {"system": "macrophages", "format": "cell-based"}, "MAPK, MEK, Raf and PKC": {"system": "MAPK, MEK, Raf and PKC", "assay": "effect on upstream kinases of PDB-stimulated RSK phosphorylation in intact cells (immunoblot)", "format": "cell-based, human", "protocol": "(§3) To determine whether SL0101-1 inhibits RSK in intact cells, phosphorylation of p140, a RSK substrate of unknown function, was examined in a human breast cancer cell line, MCF-7. MCF-7 and MCF-10A cells were pre-incubated with vehicle, 50 μM U0126 or the indicated concentration of SL0101-1 for 3 hr (FIG. 8D). Cells were treated with 500 nM PDB for 30 min prior to lysis. Protein concentration of lysates was measured and lysates were electrophoresed, transferred and immunoblotted. […] Pre-incubation of cells with 100 μM SL0101-1 abrogates phorbol dibutyrate (PDB)-induced p140 phosphorylation as does 50 μM U0126, a MEK inhibitor.\nas §2, with “(1998)).” for “(1998)). The lysates were normalized for total protein, electrophoresed and immunoblotted.”"}, "p140, a RSK substrate [4]": {"system": "p140, a RSK substrate", "assay": "PDB-induced p140 phosphorylation in MCF-10A cells (immunoblot)", "format": "cell-based, human", "protocol": "as §3\nas §2, with “(1998)).” for “(1998)). The lysates were normalized for total protein, electrophoresed and immunoblotted.”"}, "p140, a RSK substrate [5]": {"system": "p140, a RSK substrate", "assay": "p140 phosphorylation in LNCaP line (anti-RPM antibody)", "format": "cell-based, human", "protocol": "The ability of SL0101-1 to inhibit the proliferation of the androgen-dependent human prostate line, LNCaP was tested. […] To investigate the RSK signal transduction pathway in the LNCaP line, a phosphospecific antibody to a RSK phosphorylation motif (RPM) was produced. Only a few downstream effectors of RSK have been identified and therefore, applicants anticipated that an anti-RPM antibody would be a very effective tool for identifying novel RSK substrates in vivo. An anti-RPM antibody has previously been reported that recognizes the RSK substrate, p140, a protein of unknown function. […] All lysates were normalized to each other using an anti-Ran antibody. Ran is used for normalization based on the observations that it is a general housekeeping protein, the activity or expression levels of which are not known to vary in any disease state."}, "CaLu-1 cells": {"system": "CaLu-1 cells", "assay": "CaLu-1 wound migration assay", "format": "cell-based, human", "details": "60 μM, 24 hr after wounding", "protocol": "CaLu-1 cells were sub-cultured to confluence in 35-mm plates. […] Scratches were made in the monolayer of cells using sterile, disposable micropipette tips. Images were captured either immediately following the wounding, 6 hr, or 24 hours after wounding. At the point of wounding, the cells at the wound edge show increased light refraction indicating damage. By 6 hr after wounding, the vehicle-treated cells at the wound edge present wide lamella (indicated by arrows) extending toward the direction of the wound. […] At 24 hr, the vehicle-treated cells have migrated into the wound and are enlarged to re-form the confluent monolayer."}, "[6]": {"system": "human umbilical vein endothelial cells (HUVEC)", "assay": "HUVEC wound migration assay", "format": "cell-based", "details": "60 μM, 1 hr prior to wounding; up to 20 hr", "source_text": "In these experiments, HUVEC were cells were subcultured to confluence in 35-mm plates. […] Scratches were made in the monolayer of cells using sterile, disposable micropipette tips. Images were captured—2 hr, 10 hr, and 20 hr after wounding. By 10 hr after wounding, the vehicle-treated cells at the wound edge have migrated toward the wound. Gaps in the monolayer behind the wound edge are apparent. The SL0101-treated cells have recovered from the wounding, however they show little signs of polarization toward the wound and no involvement of the cells behind the wound edge. At 20 hr, the vehicle-treated cells have migrated into the wound yet the gaps are still present behind the wound edge. The cells at the wound edge in the SL0101-treated well appear to have increased in size to fill the wound rather than migrate into the wound and the monolayered cells behind the wound edge remain tightly packed unlike the vehicle-treated cells. Accordingly the data support the premise that RSK inhibitors are useful tools to stop endothelial cell migration."}}, "data": [{"smiles": "CC(=O)O[C@@H]1[C@@H](OC(C)=O)[C@@H](O)[C@H](Oc2c(-c3ccc(O)cc3)oc3cc(O)cc(O)c3c2=O)O[C@H]1C", "note": "[SL0101, kaempferol 3-O-(3″,4″-di-O-acetyl-α-L-rhamnopyranoside)]", "values": [{"measurement": "proliferation of the parental line", "setting": "[1]", "result": "little effect on proliferation"}, {"measurement": "direct effect on growth of Y. pseudotuberculosis", "setting": "Y. pseudotuberculosis", "result": "does not directly affect the growth"}, {"measurement": "proliferation of MCF-10A cells", "setting": "MCF-10A cells", "result": "no effect on the growth"}, {"measurement": "live bacteria extracted from treated macrophages", "setting": "[2]", "result": "fewer live bacteria are extracted"}, {"measurement": "growth rate of Ha-Ras transformed cells", "setting": "[3]", "result": "decreased the growth rate"}, {"measurement": "reversibility of growth inhibition (washout)", "setting": "[3]; 50 μM for 48 hr, then washout, viability 48 hr later", "result": "Removal of SL0101-1 resulted in growth of the transformed cells"}, {"measurement": "Y. pseudotuberculosis-induced actin rearrangement", "setting": "macrophages", "result": "actin rearrangement is not observed"}, {"measurement": "phosphorylation of RSK2", "setting": "MAPK, MEK, Raf and PKC", "result": "does not effect the phosphorylation of RSK2"}, {"measurement": "PDB-induced p140 phosphorylation", "setting": "p140, a RSK substrate [4]", "result": "prevented the PDB-induced p140 phosphorylation"}, {"measurement": "phosphorylation of p140", "setting": "p140, a RSK substrate [5]", "result": "decrease the phosphorylation of p140"}, {"measurement": "migration of Calu-1 cells into wound", "setting": "CaLu-1 cells", "result": "have not migrated to close the wound"}, {"measurement": "migration of HUVEC into wound", "setting": "[6]", "result": "reduce the ability of the cells to migrate"}]}]}
